Data set [1] has as its target T1, human CBS (cystathionine-β-synthase) (Homo sapiens, UniProt P35520).
T1 construct: GST (N); made in house; host or cells: E. coli BL21(DE3) Codon Plus
T1 sequence (P35520 1-551): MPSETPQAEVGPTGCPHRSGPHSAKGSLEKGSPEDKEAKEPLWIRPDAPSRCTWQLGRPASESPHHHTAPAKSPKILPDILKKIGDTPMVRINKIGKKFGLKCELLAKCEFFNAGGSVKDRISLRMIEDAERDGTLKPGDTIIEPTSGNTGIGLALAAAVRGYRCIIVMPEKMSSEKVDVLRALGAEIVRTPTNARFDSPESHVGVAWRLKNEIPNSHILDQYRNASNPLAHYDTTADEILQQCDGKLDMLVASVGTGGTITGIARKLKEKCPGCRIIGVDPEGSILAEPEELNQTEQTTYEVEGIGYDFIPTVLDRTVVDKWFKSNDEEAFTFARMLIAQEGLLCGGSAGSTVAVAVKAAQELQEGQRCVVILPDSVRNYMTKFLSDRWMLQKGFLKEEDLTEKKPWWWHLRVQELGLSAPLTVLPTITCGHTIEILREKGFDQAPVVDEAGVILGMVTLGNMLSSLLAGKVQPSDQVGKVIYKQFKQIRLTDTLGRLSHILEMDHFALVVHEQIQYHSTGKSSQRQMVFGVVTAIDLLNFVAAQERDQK
In words: H2S production by recombinant CBS. As to conditions: 100 μM compound; H2S production as % of control (100%). It counts as biochemical. As to the method: Recombinant human CBS protein expression and purification. The expression and purification of human CBS was performed as described previously (Asimakopoulou et al. 2013, Br J Pharmacol. 169(4):922-32). Briefly, E. Coli BL21(DE3) Codon Plus cells (Stratagene, La Jolla, Calif., USA) containing the expression vector pGEX-Kg/GST-CBS were grown at 37° C. and 180 rpm in LuriaBertani (LB) broth medium containing 100 μg/ml ampicillin to an absorption of 0.6-0.8 at 600 nm. Protein expression was induced by addition of 0.1 mM IPTG (isopropyl-b-D-thiogalactopyranoside) and cells were further incubated at 30° C. overnight. The bacteria were harvested and sonicated in lysis buffer PBS (140 mM NaCl, 2.7 mM KCl, 10 mM Na2HPO4, 1.8 mM KH2PO4, pH 7.8) containing a protease inhibitors cocktail (Sigma). The protein lysate was loaded onto a GSTrap FF 1 ml affinity column (Amersham Biosciences) and the GST-CBS recombinant protein was eluted with the elution buffer (50 mM Tris-HCl, 10 mM reduced glutathione, pH 8.0) and then dialyzed and concentrated in 10 mM sodium phosphate buffer (pH 8.2) and DTT (1 mM).
Measurement of H2S production by recombinant CBS. The measurement of H2S production by recombinant CBS enzyme was performed as described (Asimakopoulou et al. 2013, Br J Pharmacol. 169(4):922-32). Briefly, each test consisted of a 100 μl reaction mixture in 50 mM sodium phosphate buffer pH 8.2 containing 1 μg of the purified human CBS enzyme, 0.01 mM pyridoxal-5′-phosphate (PLP), 10 mM L-cysteine and 0.5 mM homocysteine. […] The reaction was initiated by transferring the Eppendorf tubes from ice to a 37° C. shaking water bath. After 60 minutes of incubation at 37° C., the reaction was terminated by adding 1% ZnAc followed by 10% trichloroacetic acid. Subsequently, N,N-dimethylphenylendiamine sulfate (20 mM in 7.2 M HCl) and FeCl3 (30 mM in 1.2 M HCl) were added and the optical absorbance of the solutions was measured at 650 nm.

Data set [2] relates to transformed PSC (human pancreatic stellate cells). In words: PSC proliferation, AlamarBlue Cell Viability Assay. It counts as cell-based. The note with it: for inhibition at 5 µM / inhibition at 10 µM / inhibition at 20 µM: Homo sapiens, read-out: Inhibitory Effect (%) on PSC proliferation; for Antiproliferative effect on PSC, result in words: transformed PSC, AlamarBlue. As for the experimental part: The calculated lipophilicity (cLogP) and topological polar surface area (tPSA) values of synthesized analogues are listed in Table 1. […] AlamarBlue is a non-toxic reagent that is converted to a highly fluorescent end product by viable cells.
Under an IRB-approved tissue protocol, discarded human resected pancreatic tissue (500 mm^3) was attained fresh from the operating room at the University of Texas Medical Branch. The tissue was minced and plated on a collagen-coated flask (15 μg/mL, Invitrogen) with DMEM (VWR; Radnor, Pa.) supplemented with penicillin 200 U/mL, streptomycin 200 μg/mL, amphotericin B 0.25 μg/mL and gentimicin 50 μg/mL (Invitrogen, Carlsbad Calif.), 10% fetal bovine serum (Lonza, Walkersville, Md.), 1% insulin-transferrin, selenium-ethanolamine (Gibco, Grand Island, N.Y.), and 1% non-essential amino acids (Sigma-Aldrich, St. Louis, Mo.). The human PSC were isolated by the outgrowth method.^41-43 The purity of PSC culture was confirmed by immunohistochemical staining for vimentin, α-smooth muscle actin, glial fibrillar acidic protein, or Oil red O staining. Primary PSC were transformed and immortalized for use in experiments using lentiviral vectors containing SV40 Large T antigen and human telomerase (plasmid #12245 and 12246; Addgene, Cambridge, Mass.). Cultures were maintained in DMEM with 10% FBS, at 37° C. in a humidified 95% O2/5% CO2 atmosphere.
Cell proliferation assay. Transformed PSC (3×10^3) were plated in 96-well plates, in sextuplicate. […] AlamarBlue reagent (10% sample volume, DAL1025) was added to each well per Invitrogen's protocol. Fluorescence was recorded using excitation/emission wavelengths of 544/590 nm and the SpectraMax M2 Microplate Reader (Molecular Devices, Sunnyvale Calif.).
Statistical analysis. Dose-response curves were generated by plotting fluorescence or absorbance versus log (compound concentration). A best-fit curve was created using nonlinear regression, and the IC50 or EC50 determined from the graph (GraphPad Prism 5; GraphPad Software Inc., La Jolla, Calif.). To analyze continuos variables, unpaired student t-tests and one-way ANOVA with Tukey-Kramer multiple comparisons post-test (GraphPad Prism 5). Significance was set at p<0.05.
(In general: The colour change of resazurin is a common sign of viable cells or microbes.)

Where [3] appears, read: mean of at least three independent experiments, NE = No effect.
Where [4] appears, read: 10 μM, mean of at least three independent experiments, NE = No effect.

A word on the melting point: it is the temperature of the solid-liquid transition. Molecule `COc1cc(OC)c2c(=O)cc(-c3ccc(OCCN4CCOCC4)cc3)oc2c1` [Compound 11, 5,7-Dimethoxy-2-(4-(2-morpholin-4-yl-ethoxy)phenyl)-chromen-4-one] had a melting point of 149 to 150 °C. In addition, the activity at 100 µM in data set [1] is 117%.
Turning to `COc1cc(OC)c2c(=O)cc(-c3ccc(NCCN4CCCC4)cc3)oc2c1` [Compound 37], the melting point lay within 148 to 149 °C. The activity at 100 µM in data set [1] was found to be 109%. In data set [2] (setting [3]), the inhibition at 5 µM turned out to be 21% and the inhibition at 20 µM is 80%. Besides, the inhibition at 10 µM in data set [2] (setting [4]) came to 51%.
`O=c1cc(-c2ccc(OCCN3CCCC3)cc2)oc2cc(O)cc(O)c12` [Compound 39] displayed a melting point of 228 to 229 °C. The activity at 100 µM in data set [1] stood at 99.6%. Further, in data set [2] (setting [3]), the inhibition at 5 µM was determined as 2% and the inhibition at 20 µM stood at 90%. Moreover, the inhibition at 10 µM in data set [2] (setting [4]) came to 71%.
`COc1cc(OC)c2c(=O)cc(-c3ccc(OCC(O)CO)cc3)oc2c1` (centres unmarked) [Compound 28, 2-(4-(2,3-Dihydroxypropoxy)phenyl)-5,7-dimethoxy-chromen-4-one]: the melting point lay within 203 to 204 °C. In addition, in data set [1], the activity at 100 µM came out at 104%. The inhibition at 10 µM in data set [2] (setting [4]) was determined as 11%. The inhibition at 20 µM in data set [2] (setting [3]) amounted to 16%. Besides, the “Antiproliferative effect on PSC, result in words” value (from here on “Antiproliferative effect on PSC”) in data set [2] was “dramatic loss of activities”.
`COc1cc(OC)c2c(=O)cc(-c3ccc(OCCN4CCN(C)CC4)cc3)oc2c1` [Compound 15, 5,7-Dimethoxy-2-(4-(2-(4-methylpiperazin-1-yl)ethoxy)phenyl)-chromen-4-one] displayed a melting point of 144 to 145 °C. The activity at 100 µM in data set [1] was 124%. Also, in data set [2] (setting [3]), the inhibition at 5 µM stood at 22% and the inhibition at 20 µM stood at 67%. The inhibition at 10 µM in data set [2] (setting [4]) amounted to 42%.
For `COc1cc(OC)c2c(=O)cc(-c3ccc(OCCCN)cc3)oc2c1` [Compound 21, 2-(4-(3-Aminopropoxy)-phenyl)-5,7-dimethoxy-chromen-4-one], the melting point fell in the range of 170 to 171 °C. In addition, the activity at 100 µM in data set [1] was found to be 116%. The inhibition at 5 µM in data set [2] (setting [3]) came to 22%. The inhibition at 10 µM in data set [2] (setting [4]) is 39%.
Consider `COc1cc(OC)c2c(=O)cc(-c3ccc(OCCN4CCCC4=O)cc3)oc2c1` [Compound 13, 1-(2-(4-(5,7-Dimethoxy-4-oxo-4H-chromen-2-yl)phenoxy)ethyl)-pyrrolidin-2-one], for which the melting point lay in the range of 115 to 116 °C. In addition, the activity at 100 µM in data set [1] is 108%. In data set [2] (setting [3]), the inhibition at 5 µM is 7% and the inhibition at 20 µM came to 33%. In addition, the inhibition at 10 µM in data set [2] (setting [4]) amounted to 14%.
Consider `COc1cc(OC)c2c(=O)cc(-c3ccc(OCCCN(C)C)cc3)oc2c1` [Compound 12, 2-(4-(3-Dimethylaminopropoxy)phenyl)-5,7-dimethoxy-chromen-4-one], for which the melting point was 105 to 106 °C. The activity at 100 µM in data set [1] came out at 83.9%. For the same molecule, in data set [2] (setting [4]), the “Inhibitory Effect (%) on PSC proliferation” value was 59% and the inhibition at 10 µM is 59%. In data set [2] (setting [3]), the inhibition at 5 µM was 36% and the inhibition at 20 µM was found to be 86%.
`COc1cc(OC)c2c(=O)cc(-c3ccc(OCCBr)cc3)oc2c1` [Compound 7, 2-(4-(2-Bromoethoxy)phenyl)-5,7-dimethoxy-chromen-4-one] showed a melting point of 202 to 203 °C. Further, the activity at 100 µM in data set [1] came out at 121%. Besides, the inhibition at 20 µM in data set [2] (setting [3]) is 20%. For the same molecule, the “Antiproliferative effect on PSC” value in data set [2] is recorded as “slightly increased antiproliferative effects in comparison with 6”.
`COC(=O)[C@@H]1CCCN1CCOc1ccc(-c2cc(=O)c3c(OC)cc(OC)cc3o2)cc1` [Compound 18, 1-(2-(4-(5,7-Dimethoxy-4-oxo-4H-chromen-2-yl)phenoxy)ethyl)-pyrrolidine-2-carboxylic acid methyl ester] yielded a melting point of 121 to 122 °C. The activity at 100 µM in data set [1] came out at 116%. Moreover, in data set [2] (setting [3]), the inhibition at 5 µM was 22% and the inhibition at 20 µM came to 67%. Besides, the inhibition at 10 µM in data set [2] (setting [4]) was 37%.
In turn, `COc1cc(OC)c2c(=O)cc(-c3ccc(OCCN)cc3)oc2c1` [Compound 20, 2-(4-(2-Aminoethoxy)-phenyl)-5,7-dimethoxy-chromen-4-one] had a melting point of 165 to 166 °C. Further, the activity at 100 µM in data set [1] stood at 119%. For the same molecule, in data set [2] (setting [3]), the inhibition at 5 µM worked out at 6% and the inhibition at 20 µM was 70%. Also, the inhibition at 10 µM in data set [2] (setting [4]) amounted to 35%.
For `COc1cc(OC)c2c(=O)cc(-c3ccc(-c4ccc(F)nc4)cc3)oc2c1` [Compound 33, 2-(4-(6-Fluoropyridin-3-yl)phenyl)-5,7-dimethoxy-chromen-4-one], the melting point was 209 to 210 °C. The activity at 100 µM in data set [1] stood at 107%. For the same molecule, the inhibition at 10 µM in data set [2] (setting [4]) is 6%. Also, the inhibition at 20 µM in data set [2] (setting [3]) was found to be 19%. Further, the “Antiproliferative effect on PSC” value in data set [2] is given as “substantial loss of the activity”.
In the case of `COc1cc(O)c2c(=O)cc(-c3ccc(OCCN4CCCC4)cc3)oc2c1` [Compound 38], the melting point lay in the range of 127 to 129 °C. The activity at 100 µM in data set [1] amounted to 109%. The inhibition at 10 µM in data set [2] (setting [4]) was 39%. In addition, the inhibition at 20 µM in data set [2] (setting [3]) came out at 99%.
Regarding `COc1cc(OC)c2c(=O)cc(-c3ccc(Br)cc3)oc2c1` [Compound 31, 2-(4-Bromophenyl)-5,7-dimethoxy-chromen-4-one], the activity at 100 µM in data set [1] was determined as 69.4%. Besides, in data set [2] (setting [3]), the inhibition at 5 µM was 12% and the inhibition at 20 µM was found to be 22%. Moreover, the inhibition at 10 µM in data set [2] (setting [4]) was 10%.
On to `COc1cc(OC)c2c(=O)cc(-c3ccc(O)cc3)oc2c1` [Compound 6, 2-(4-Hydroxy-phenyl)-5,7-dimethoxy-chromen-4-one], for which the activity at 100 µM in data set [1] came to 130%.

The values are drawn from US9868715B2 (THE BOARD OF REGENTS OF THE UNIVERSITY OF TEXAS SYSTEMS, priority 2014, dated 2018).
